In one test the target is T1, (H+/K+)-ATPase (Canis lupus familiaris, UniProt P50996).
T1 construct: The microsomes retained at the 15%-30% sucrose interface, after centrifugation at 250,000×g for sixty minutes, were used as the source of (H^+/K^+)-ATPase; from tissue; host or cells: gastric glandular mucosa of mongrel dogs (microsomal fraction, lyophilized)
In words: Inhibition of (H+/K+)-ATPase from canine gastric mucosa (inorganic phosphate release). The test is classed as biochemical. Conditions: canine gastric mucosa microsomes, pH 6.0, 30 min preincubation at 37° C.; read-out: (H+/K+)-ATPase IC50. The essentials:
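Lyophilised gastric microsomes (sucrose-gradient 15%/30% interface fraction from dog mucosa, ~25 mcg protein) preincubated with compound 30 min at 37° C in 20 mM MES-Tris pH 6.0, 5 mM MgCl2, 25 mM sucrose, then 30 min more after 4 mM Tris-ATP. Released phosphate read by molybdate/ascorbate at 870 nm; activity = K+-stimulated (20 mM KCl) minus basal.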

In test [1] the target is HCMV protease (assemblin) (Human cytomegalovirus, UniProt P16753). Briefly: Enzymatic assay for HCMV protease (assemblin) inhibitors, fluorogenic substrate DE2. It counts as biochemical. As to conditions: at 100 μm; 30 min preincubation at 22° C.; read-out: Assemblin Inhibition % Inhibition at 100 μm. Here is the method: The enzymatic assay for assemblin inhibitors compared the rate of product appearance between a control reaction containing no inhibitor and one that contained a known concentration of a potential inhibitor. There were two phases to the enzyme reaction. The first was a period of incubation of enzyme in the presence of inhibitor, but in the absence of the substrate. This incubation allowed for the inhibitor to bind and potentially block the enzyme from hydrolyzing the substrate. The second phase was started by adding the substrate and measuring the rate of product production.
HCMV protease (assemblin), sequence (P16753 1-256): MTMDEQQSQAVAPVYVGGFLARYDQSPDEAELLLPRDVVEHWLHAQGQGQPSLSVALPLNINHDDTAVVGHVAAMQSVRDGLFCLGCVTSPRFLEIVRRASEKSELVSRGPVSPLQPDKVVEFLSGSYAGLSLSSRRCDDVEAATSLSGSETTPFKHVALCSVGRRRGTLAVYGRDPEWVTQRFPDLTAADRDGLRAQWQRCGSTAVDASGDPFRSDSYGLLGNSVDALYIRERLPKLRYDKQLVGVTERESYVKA
The construction also encoded six additional histidine residues at the amino terminus of the protease. These additional histidine residues provided an affinity ligand by which it was purified using nickel-nitriloacetic acid-agarose (Qiagen).
The purified protease was stored as a 1-3 mg/ml stock solution in 50 mM sodium phosphate buffer, pH 7.4; 300 mM sodium chloride; 100 mM imidazole; 50% (v/v) glycerol. This stock was diluted with assay buffer to 4.8 μg/ml. A 100 μL aliquot of this solution was used in the enzyme reaction.
A specific substrate was synthesized based on the cleavage specificity of HCMV protease at the “maturation site” of the assembly protein (F. Liu and B. Roizman, J. Viral. 65, 5149 (1991), and A. R. Welch, et al, J. Viral., 65 4091 (1991)). The assembly protein maturation site has the sequence . . . AGVVNA*SCRLATA . . . (SEQ ID NO. 1); the substrate used was dabcycl-Abu-[…]-edans (SEQ ID NO. 2) (DE2). […] However, when the two chromophores are separated because of hydrolysis of the peptide moiety by HCMV protease the edans fluorescence was no longer quenched and an increase in fluorescence was realized. DE2 was stored as a stock solution at 160 μg/ml in dimethyl sulfoxide. This was diluted 10-fold with assay buffer to give a concentration of 16 μg/ml just before use. An aliquot of 50 μL was used in the reaction.
An assay Buffer (10 mM sodium phosphate buffer, pH 7.4; 150 mM sodium acetate; 0.1% CHAPS; and 20% (v/v) glycerol) was used to dilute stock solutions of enzyme and substrate.
Inhibitors were dissolved in dimethyl sulfoxide at 16-times the final assay concentration. A 10 μL aliquot of this inhibitor solution was used in the reaction.
A 100 μL aliquot of enzyme solution (4.8 μg/ml) was mixed with 10 μL of inhibitor solution in a 96-well plate cell and incubated at 22° C. for 30 minutes. Control reactions contained 10 μL of dimethylsulfoxide instead of inhibitor solution. After the preincubation was completed, 50 μL of substrate solution was added and the fluorescence recorded every 5 minutes for a period of 30 minutes. All reactions were run in triplicate with the exception of the uninhibited control reaction which was replicated 6-fold. The change in fluorescence was recorded over time and an average rate for each set of 3 reactions was calculated. Fluorescence assays were subject to spurious various due to factors such as dust in the 96-well plate; such results were omitted from the calculation of relative rates.

The structures appear in SMILES notation.

T1 sequence (P50996 whole entry): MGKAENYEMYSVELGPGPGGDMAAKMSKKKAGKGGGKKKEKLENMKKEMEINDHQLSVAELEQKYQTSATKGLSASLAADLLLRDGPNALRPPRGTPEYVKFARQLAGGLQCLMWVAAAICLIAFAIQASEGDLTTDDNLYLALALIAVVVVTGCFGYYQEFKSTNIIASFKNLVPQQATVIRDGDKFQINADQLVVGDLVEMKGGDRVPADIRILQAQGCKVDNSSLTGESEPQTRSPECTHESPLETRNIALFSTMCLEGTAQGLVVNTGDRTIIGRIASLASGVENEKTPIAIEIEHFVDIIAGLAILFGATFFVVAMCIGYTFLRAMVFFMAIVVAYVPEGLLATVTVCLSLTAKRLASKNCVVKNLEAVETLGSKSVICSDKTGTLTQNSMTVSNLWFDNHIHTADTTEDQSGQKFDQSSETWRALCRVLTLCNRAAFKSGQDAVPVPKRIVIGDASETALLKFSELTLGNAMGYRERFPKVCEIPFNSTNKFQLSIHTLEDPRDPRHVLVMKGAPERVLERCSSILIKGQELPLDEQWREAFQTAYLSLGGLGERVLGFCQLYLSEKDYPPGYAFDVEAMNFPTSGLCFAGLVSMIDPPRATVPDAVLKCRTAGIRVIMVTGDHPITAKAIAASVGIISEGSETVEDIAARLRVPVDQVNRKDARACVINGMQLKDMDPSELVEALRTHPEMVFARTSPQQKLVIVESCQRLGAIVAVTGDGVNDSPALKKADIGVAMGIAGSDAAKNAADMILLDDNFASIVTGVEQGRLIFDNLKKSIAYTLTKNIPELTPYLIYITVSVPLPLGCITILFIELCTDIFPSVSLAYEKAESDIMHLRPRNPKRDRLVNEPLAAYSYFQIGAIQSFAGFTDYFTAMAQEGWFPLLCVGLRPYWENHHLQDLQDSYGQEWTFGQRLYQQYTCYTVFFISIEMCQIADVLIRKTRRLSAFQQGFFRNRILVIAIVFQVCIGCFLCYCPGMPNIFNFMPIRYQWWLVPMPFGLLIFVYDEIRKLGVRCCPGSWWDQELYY
T1 sequence (P33704 whole entry partner): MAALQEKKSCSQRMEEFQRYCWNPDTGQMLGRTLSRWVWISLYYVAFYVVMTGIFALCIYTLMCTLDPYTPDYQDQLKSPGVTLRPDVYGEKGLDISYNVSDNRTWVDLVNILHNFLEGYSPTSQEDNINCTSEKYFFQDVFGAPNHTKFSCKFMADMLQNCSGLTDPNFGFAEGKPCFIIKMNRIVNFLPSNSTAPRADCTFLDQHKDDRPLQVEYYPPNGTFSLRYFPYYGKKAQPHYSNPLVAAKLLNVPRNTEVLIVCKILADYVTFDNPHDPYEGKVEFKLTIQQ

Broadly, the inhibition is the drop in the measured response relative to a control, in per cent. For the compound `COc1ccc(N)c(C[S+]([O-])c2nc3ccccc3[nH]2)c1` (stereo not drawn) [Example 20, 2-[(1H-Benzimidazol-2-ylsulfinyl)methyl]-4-methoxybenzenamine], on (H+/K+)-ATPase, the IC50 was determined as 1.6 µM. In test [1], the inhibition at 100 µM is 60%.

As for `Cc1ccc2[nH]c([S+]([O-])Cc3ccccc3N)nc2c1` (stereo not drawn) [Example 41, 2-[[(5-Methyl-1H-benzimidazol-2-yl)sulfinyl]-methyl]benzenamine], the IC50 at (H+/K+)-ATPase is 7.9 µM. Further, the inhibition at 100 µM in test [1] was determined as 67%.

On to `Nc1ccccc1C[S+]([O-])c1nc2cc(Cl)ccc2[nH]1` (stereo not drawn) [Example 43, 2-[[(5-Chloro-1H-benzimidazol-2-yl)sulfinyl]-methyl]benzenamine], for which, at (H+/K+)-ATPase, the IC50 is 12 µM. Besides, the inhibition at 100 µM in test [1] was 74%.

With `Cc1ccc(C[S+]([O-])c2nc3ccccc3[nH]2)c(N)c1C` (stereo not drawn) [Example 53, 2-[(1H-Benzimidazol-2-ylsulfinyl)methyl]-5,6-dimethylbenzenamine ¼ hydrate], at (H+/K+)-ATPase, the IC50 worked out at 0.6 µM. For the same compound, in test [1], the inhibition at 100 µM was determined as 85%.

As for `COc1ccc2[nH]c([S+]([O-])Cc3c(N)cc(C)c(OC)c3C)nc2c1` (stereo not drawn) [Example 78, 2-[[(5-Methoxy-1H-benzimidazol-2-yl)sulfinyl]methyl]-4-methoxy-3,5-dimethylbenzenamine], at (H+/K+)-ATPase, the IC50 came out at 2.1 µM. Further, the inhibition at 100 µM in test [1] was 82%.

`COc1ccc2[nH]c([S+]([O-])Cc3ncc(C)c(OC)c3C)nc2c1` (stereo not drawn) [omeprazole, reference compound]: the IC50 at (H+/K+)-ATPase was 1.9 µM. Moreover, the inhibition at 100 µM in test [1] stood at 0%.
